Target: T1, Acel0264 (Acidothermus cellulolyticus, UniProt A0LRH8)
T1 sequence (A0LRH8 1-356): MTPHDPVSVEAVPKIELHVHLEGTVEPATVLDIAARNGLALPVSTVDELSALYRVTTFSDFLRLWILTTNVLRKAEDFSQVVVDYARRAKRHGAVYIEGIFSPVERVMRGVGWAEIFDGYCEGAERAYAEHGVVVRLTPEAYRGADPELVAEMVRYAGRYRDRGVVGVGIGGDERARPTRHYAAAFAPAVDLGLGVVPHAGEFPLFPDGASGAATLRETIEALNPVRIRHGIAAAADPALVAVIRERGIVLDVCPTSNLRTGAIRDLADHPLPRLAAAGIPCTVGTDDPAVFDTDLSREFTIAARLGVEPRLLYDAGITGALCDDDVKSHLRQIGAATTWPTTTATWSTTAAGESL
Experiment: absorbance decrease at […] nm
Assay type: biochemical
Settings: read-out: Acel0264 / Km; pH 7.5, 30 °C

CCNC(=O)[C@H]1O[C@@H](n2cnc3c(N)ncnc32)[C@H](O)[C@@H]1O [NECA, 1-(6-Amino-9H-purin-9-yl)-1-deoxy-N-ethyl-β-D-ribofuranuronamide]
Km: 61 µM

Reference: paper PMC3813303 (Biochemistry, 2013)
